Laboratory results reported in ChEMBL document CHEMBL5370538, “Discovery of novel 6-p-tolyl-3-(3,4,5-trimethoxybenzyl)-7H-[1,2,4]triazolo[3,4-b][1,3,4]thiadiazine derivative as a potent tubulin inhibitor with promising in vivo antitumor activity” (Eur J Med Chem, 2023).
The source made the active and inactive calls. No cut-off for these calls is given here.

Experiments:
[1] = Tmax in Sprague-Dawley rat at 10 mg/kg,po measured upto 24 hrs by LC-MS/MS analysis; format: ADME, organism-based; conditions: in vivo
HeLa [2] = test: Induction of cell cycle arrest in human HeLa cells assessed as accumulation of cells at G2/M phase at 0.03 uM incubated for 24 hrs by propidium iodide staining based flow cytometry (reference value: 17.38 %); format: functional
Tubulin = test: Inhibition of tubulin polymerization (unknown origin) measured for 20 mins in presence of GTP by spectrophotometry analysis; format: protein-complex assay, Homo sapiens
HeLa [3] = test: Antiproliferative activity against human HeLa cells assessed as cell growth inhibition incubated for 48 hrs by MTT assay; format: functional, cell-based
[4] = Half life in Sprague-Dawley rat at 10 mg/kg,po measured upto 24 hrs by LC-MS/MS analysis; format: ADME, organism-based; conditions: in vivo
HeLa [5] = test: Induction of cell cycle arrest in human HeLa cells assessed as accumulation of cells at G2/M phase at 0.12 uM incubated for 24 hrs by propidium iodide staining based flow cytometry (reference value: 17.38 %); format: functional
[6] = Cmax in Sprague-Dawley rat at 10 mg/kg,po measured upto 24 hrs by LC-MS/MS analysis; format: ADME, organism-based; design: time < 24 hrs, dose 10 mg/kg, route po; conditions: in vivo
HeLa [7] = test: Induction of cell cycle arrest in human HeLa cells assessed as accumulation of cells at S phase at 0.06 uM incubated for 24 hrs by propidium iodide staining based flow cytometry (reference value: 20.22 %); format: functional
[8] = Half life in Sprague-Dawley rat at 2 mg/kg,iv measured upto 24 hrs by LC-MS/MS analysis; format: ADME, organism-based; conditions: in vivo
HeLa [9] = test: Induction of apoptosis in human HeLa cells assessed as early apoptotic cells at 0.03 uM incubated for 24 hrs Annexin V-FITC/PI staining based flow cytometry analysis (Rvb= 1.85 %); format: functional
A549 = test: Antitumor activity against human A549 cells xenografted in Balb/c mouse assessed as inhibition of tumor weight at 60 mg/kg,ip administrated for 7 days; format: functional, organism-based; conditions: time 7.0 day
HeLa [10] = test: Induction of cell cycle arrest in human HeLa cells assessed as accumulation of cells at G0/G1 phase at 0.12 uM incubated for 24 hrs by propidium iodide staining based flow cytometry (reference value: 62.4 %); format: functional
[11] = Volume of distribution at steady state in Sprague-Dawley rat at 10 mg/kg,po measured upto 24 hrs by LC-MS/MS analysis; format: ADME, organism-based; conditions: in vivo
HeLa [12] = test: Induction of cell cycle arrest in human HeLa cells assessed as accumulation of cells at S phase at 0.12 uM incubated for 24 hrs by propidium iodide staining based flow cytometry (reference value: 20.22 %); format: functional

Tmax [1]: 4.3 h | IC50 (Tubulin): 11.2 µM | IC50 (HeLa [3]): 0.046 µM | half-life [4]: 4.8 h | Cmax [6]: 28.4 ng/mL | half-life [8]: 5.3 h | Vdss [11]: 1036.2 L/kg
SMILES: COc1cc(Cc2nnc3n2N=C(c2ccc(C)cc2)CS3)cc(OC)c1OC
Activity (HeLa [2]): 27.37% | Activity (HeLa [5]): 91.09% | Activity (HeLa [7]): 28.35% | Activity (HeLa [9]): 18.6% | Activity (A549): Active | Activity (HeLa [10]): 0.51% | Activity (HeLa [12]): 8.4%
